Measurements taken from US20260125357A1, “LACTATE ENHANCING COMPOUNDS AND USES THEREOF” (GLIAPHARM SA, priority 2022, published 2026).

Experiments:
Format in all cases: in vivo, mouse
[1] = system: C57Bl/6J wild-type mice; assay: Lactate and glucose biosensors, cerebral extracellular levels in freely moving mice; conditions: per os, doses 10 to 30 mg/kg, 3 hours, AUC ratio vs vehicle
Experimental: (§1) All experiments were carried out in strict accordance with the Swiss Federal Guidelines for Animal Experimentation and were approved by the Cantonal Veterinary Office for Animal Experimentation (Canton of Geneva, Switzerland). Adult male C57Bl/6J wild-type mice weighting 18-28 g (8 to 12 weeks of age) were used (Charles River Laboratories). Animals were housed in groups of 3-5 in polypropylene cages (30×40×15 cm) with wire mesh top in a temperature (22±2° C.) and humidity (55±15%) controlled environment on a 12-hour light cycle (07.00-19.00 h lights on), except after surgeries when animal were housed individually. The samples (Vehicle or compounds of the invention) were administered per os (gavage) in a solution made of water supplemented with 0.4% hydroxypropyl methylcellulose (HPMC) Methocel 4 KM (w/v) and 0.25% Tween-20 (v/v), as previously described (Thackaberry et al., 2010, Toxicol Sci., 117(2):485-92). Concentrations of the compounds tested ranged from 3 to 30 mg/kg.
Cerebral extracellular levels of L-lactate and D-glucose were monitored in vivo using lactate and glucose biosensors (Pinnacle Technology), respectively, according to the manufacturer's instructions. Cannulae were surgically implanted in the medial prefrontal cortices (coordinates: −1.0 mm (to bregma), lateral+/−1.0 mm (to mideline), ventral −1.0 mm (to dura))) of isoflurane-anesthetized mice 5 to 7 days prior experiment. After surgery, mice were monitored closely and received analgesic treatment for at least 4 days. After mice had fully recovered from surgery, compounds of the invention of vehicle were administered per os as previously described and cerebral levels of extracellular lactate and glucose were dynamically recorded for 6 hours using biosensors. Mice were administered vehicle alone first, followed 3 hours later by vehicle or Compounds of the Invention. Concentrations of cerebral extracellular lactate and glucose were calculated from the biosensor electric signals using post-calibration values. […] Area Under the Curve (AUC) of lactate and glucose concentration curves were calculated using Graphad Prism and the ratio of AUC after drug over Vehicle administration was calculated. Extracellular concentrations of lactate and glucose were measured in real time in freely moving animals for 3 hours after administration of Vehicle or compounds (1) to (4) at doses ranging from 10 to 30 mg/kg (FIG. 5).

[2] = system: C57Bl/6J wild-type mice; assay: 18F-FDG PET glucose uptake in the brain; conditions: gavage, 30 mg/kg, vs Vehicle
Experimental: as §1
^18F-FDG PET Glucose uptake in the brain was measured in vivo using 18F-fluorodeoxyglucose (FDG) with positron emission tomography (PET) Scan. Mice were fasted for 12 hours before the scans PET/CT measurements. Compounds of the invention were administered by gavage, followed by an intraperitoneal injection of 5 MBq of ^18F-FDG in 300 μL of saline. […]

[3] = system: GLUT1-DS transgenic mice; assay: Lactate and glucose biosensors in GLUT1-DS transgenic mice; conditions: oral 10 mg/kg, vs vehicle
Source text: (§2) Heterozygous transgenic mice on 129/SvJ genetic background in which glucose transporter 1 (GLUT1) has been knocked down were used (GLUT1(+/−)) (Wang et al., 2016, Human Molecular Genetics, 15(7)). GLUT1-deficiency syndrome (GLUT1-DS) is a prototypic hypometabolic diseases caused by the mutation of GLUT1 and decreased levels of glucose and lactate in the brain (Tang et al., 2019, Annals of Clinical and Translational Neurology 6(9)). Mating colonies were composed of wild-type female mice and GLUT1-DS male mice, or GLUT1-DS female mice and wild-type male mice. F1 pups were genotyped after ear punching at weaning using PCR to determine genotype. Mice of 2 to 3 months of age were used.
Cerebral extracellular levels of lactate and glucose were monitored in vivo in GLUT1-DS transgenic male mice and wild-type (WT) male littermates using lactate and glucose biosensors (Pinnacle Technology), according to the manufacturer's instructions. […] After surgery, mice were monitored closely and received analgesic treatment for at least 4 days. After mice had fully recovered from surgery, compounds of the invention or vehicle were administered per os as previously described and cerebral levels of extracellular lactate or glucose were dynamically recorded for 6 hours using lactate or glucose biosensors, respectively. […]

[4] = system: GLUT1-DS transgenic mice; assay: Rotarod motor function in GLUT1-DS transgenic mice; conditions: single administration 10 mg/kg, 20 min before rotarod
Source text: as §2
Motor function was measured in wild-type (WT) and GLUT 1-DS transgenic mice in the rotarod after single administration of Veh. or compound (1) or (2) (10 mg/kg) 20 min before rotarod. Rotarod testing consisted in placing the mouse on an accelerating rotating rod (4 to 40 r.p.m.) during a maximum of 300 seconds. 3 consecutive sessions with 15 min apart were performed. Latency for the mouse to fall from the rod was recorded and the maximal latency over the 3 trials was used as a measure of motor function.

SMILES: COc1cc2ccnc(Nc3ccc(S(C)(=O)=O)cc3)c2cc1OC [Compound 2, 6,7-dimethoxy-N-(4-methylsulfonylphenyl)isoquinolin-1-amine]
- extracellular glucose levels in the brain [1]: significantly increases extracellular glucose levels
- extracellular lactate levels in the brain [1]: significantly increases extracellular lactate levels
- glucose uptake in the brain (18F-FDG in the whole brain) [2]: increases glucose uptake in the brain
- extracellular glucose levels in the brain [3]: significantly increases
- extracellular lactate levels in the brain [3]: significantly increases extracellular lactate
- rotarod performance (latency to fall) [4]: increased rotarod performance
